# Measured values: ChEMBL document CHEMBL1144759, “Neuroprotective limonoids of root bark of Dictamnus dasycarpus” (J Nat Prod, 2008)
# Counter-ions that a name gives are not always drawn.
# What was measured:
# [1] = Neuroprotective activity against rat cortical cells assessed as glutamate-induced neurotoxicity by MTT assay; assay type: functional, cell-based
# [2] = Neuroprotective activity against rat cortical cells at 0.1 uM assessed as glutamate-induced neurotoxicity by MTT assay; assay type: functional
# [3] = Neuroprotective activity against rat cortical cells at 1.0 uM assessed as glutamate-induced neurotoxicity by MTT assay; assay type: functional
# [4] = Neuroprotective activity against rat cortical cells at 10.0 uM assessed as glutamate-induced neurotoxicity by MTT assay; assay type: functional
Structure (SMILES),EC50 [1] [nM],Emax at 0.1 µM [2] [%],Emax at 1 µM [3] [%],Emax at 10 µM [4] [%]
CC1=C2C(=O)O[C@@H](c3ccoc3)[C@]2(C)CC[C@@H]1O,98,51.1,–,–
CC1=C2C(=O)O[C@@H](c3ccoc3)[C@]2(C)CC[C@H]1O[C@@H]1O[C@H](CO)[C@@H](O)[C@H](O)[C@H]1O,705,–,53,–
CC1=CCC[C@@]2(C)[C@H](c3ccoc3)OC(=O)[C@H]3O[C@]132 [CALODENDROLIDE],19,71.9,–,–
CC1=C2[C@@H](O)C(=O)O[C@@H](c3ccoc3)[C@]2(C)CC[C@@H]1O [DICTAMDIOL A],68,68.1,–,–
CC1=C2[C@H](O)C(=O)O[C@@H](c3ccoc3)[C@]2(C)CC[C@H]1O [DICTAMDIOL B],–,45.6,–,–
CC1=C2[C@H](O)C(=O)O[C@@H](c3ccoc3)[C@]2(C)CC[C@@H]1O [DICTAMDIOL],–,35.3,–,–
C[C@H]1C2=C(O)C(=O)O[C@@H](c3ccoc3)[C@]2(C)CC[C@@H]1O[C@@H]1O[C@H](CO)[C@@H](O)[C@H](O)[C@H]1O [DICTAMNUSINE],42,62.1,–,–
C[C@]12N[C@H](Cc3ccccc31)c1ccccc12 [DIZOCILPINE MALEATE],480,–,–,83.8
CC1=C2C(=O)O[C@@H](c3ccoc3)[C@]2(C)CCC1 [FRAXINELLONE],22,70.4,–,–
CC1=C2C(=O)O[C@@H](c3ccoc3)[C@]2(C)CCC1=O [FRAXINELLONONE],–,–,47.6,–
CC1(C)O[C@H]2CC(=O)OC[C@]23[C@H]2CC[C@@]4(C)[C@H](c5ccoc5)OC(=O)[C@H]5O[C@]54[C@]2(C)C(=O)C[C@@H]13 [LIMONIN],18,75.9,–,–
CC1(C)OC(=O)C=C[C@]2(C)[C@H]3CC[C@@]4(C)[C@H](c5ccoc5)OC(=O)[C@H]5O[C@]54[C@]3(C)C(=O)C[C@@H]12 [OBACUNONE],39,63.9,–,–
CC1(C)O[C@H]2CC(=O)OC[C@]23[C@H]2CC[C@@]4(C)[C@H](c5ccoc5)OC(=O)[C@H]5O[C@]54[C@]2(C)[C@@H](O)C(=O)[C@@H]13 [RUTAEVIN],3060,–,–,65.4
